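GI50 = concentration required for 50% inhibition of growth. At the TGI there is no net growth.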
Experiments:
Assay in all cases: NCI anticancer screen, dose series, 384-well format
HT29 colon = test system: HT29 colon
SNB-75 CNS = test system: SNB-75 CNS
HCC-2998 colon = test system: HCC-2998 colon
MALME-3M melanoma = test system: MALME-3M melanoma
MDA-MB-468 breast = test system: MDA-MB-468 breast
OVCAR-8 ovarian = test system: OVCAR-8 ovarian
MCF7 breast = test system: MCF7 breast
HS 578T breast = test system: HS 578T breast
786-0 renal = test system: 786-0 renal
K-562 leukemia = test system: K-562 leukemia
NCI-H460 NSCLC = test system: NCI-H460 NSCLC
EKVX NSCLC = test system: EKVX NSCLC
RPMI-8226 leukemia = test system: RPMI-8226 leukemia
A498 renal = test system: A498 renal
HOP-92 NSCLC = test system: HOP-92 NSCLC
SN12C renal = test system: SN12C renal
SF-268 CNS = test system: SF-268 CNS
SK-MEL-28 melanoma = test system: SK-MEL-28 melanoma
HCT-116 colon = test system: HCT-116 colon
U251 glioblastoma = test system: U251 glioblastoma
NCI-H226 lung = test system: NCI-H226 lung
BT-549 breast = test system: BT-549 breast
SK-MEL-5 melanoma = test system: SK-MEL-5 melanoma
CCRF-CEM leukemia = test system: CCRF-CEM leukemia
IGROV1 ovarian = test system: IGROV1 ovarian
SK-MEL-2 melanoma = test system: SK-MEL-2 melanoma
KM12 colon = test system: KM12 colon
DU-145 prostate = test system: DU-145 prostate
CAKI-1 renal = test system: CAKI-1 renal
SR leukemia = test system: SR leukemia
SK-OV-3 ovarian = test system: SK-OV-3 ovarian
HCT-15 colon = test system: HCT-15 colon
RXF 393 renal = test system: RXF 393 renal
MOLT-4 leukemia = test system: MOLT-4 leukemia
COLO 205 colon = test system: COLO 205 colon
UO-31 renal = test system: UO-31 renal
MDA-MB-231 breast = test system: MDA-MB-231 breast
SW-620 colon = test system: SW-620 colon
ACHN renal = test system: ACHN renal
NCI-H322M lung = test system: NCI-H322M lung
UACC-62 melanoma = test system: UACC-62 melanoma
PC-3 prostate = test system: PC-3 prostate
NCI/ADR-RES ovarian = test system: NCI/ADR-RES ovarian
OVCAR-3 ovarian = test system: OVCAR-3 ovarian
T-47D breast = test system: T-47D breast
MDA-MB-435 melanoma = test system: MDA-MB-435 melanoma
OVCAR-4 ovarian = test system: OVCAR-4 ovarian
LOX IMVI melanoma = test system: LOX IMVI melanoma

Structure (SMILES): C[C@@H]1CN(CC(=O)N2CC(C)(C)c3nc(CO)c(Cc4ccc(F)cc4)cc32)[C@@H](CN2CCOC[C@H]2C)CN1
- GI50 (HT29 colon): 19.3 µM
- TGI (HT29 colon): 36.7 µM
- GI50 (SNB-75 CNS): 16.3 µM
- TGI (SNB-75 CNS): 41.6 µM
- GI50 (HCC-2998 colon): 15.8 µM
- TGI (HCC-2998 colon): 29.8 µM
- GI50 (MALME-3M melanoma): 0.0411 µM
- TGI (MALME-3M melanoma): 2.61 µM
- GI50 (MDA-MB-468 breast): 0.483 µM
- TGI (MDA-MB-468 breast): 14.8 µM
- GI50 (OVCAR-8 ovarian): 17.7 µM
- TGI (OVCAR-8 ovarian): 47.8 µM
- GI50 (MCF7 breast): 35.2 µM
- TGI (MCF7 breast): 79.5 µM
- GI50 (HS 578T breast): 7.75 µM
- TGI (HS 578T breast): > 67.2 µM
- GI50 ([…]-0 renal): 20.4 µM
- TGI (786-0 renal): 42.2 µM
- GI50 (K-562 leukemia): 16.8 µM
- TGI (K-562 leukemia): 30.9 µM
- GI50 (NCI-H460 NSCLC): 26 µM
- TGI (NCI-H460 NSCLC): 56.1 µM
- GI50 (EKVX NSCLC): 29.9 µM
- TGI (EKVX NSCLC): > 88.8 µM
- GI50 (RPMI-8226 leukemia): 23.1 µM
- TGI (RPMI-8226 leukemia): 38 µM
- GI50 (A498 renal): 21.5 µM
- TGI (A498 renal): 53.2 µM
- GI50 (HOP-92 NSCLC): 14.6 µM
- TGI (HOP-92 NSCLC): 43.8 µM
- GI50 (SN12C renal): > 79 µM
- TGI (SN12C renal): > 100 µM
- GI50 (SF-268 CNS): 38.6 µM
- TGI (SF-268 CNS): > 74.7 µM
- GI50 (SK-MEL-28 melanoma): 14.1 µM
- TGI (SK-MEL-28 melanoma): 33.3 µM
- GI50 (HCT-116 colon): 35.6 µM
- TGI (HCT-116 colon): > 91.2 µM
- GI50 (U251 glioblastoma): 28.1 µM
- TGI (U251 glioblastoma): 62.4 µM
- GI50 (NCI-H226 lung): 40.4 µM
- TGI (NCI-H226 lung): > 82.3 µM
- GI50 (BT-549 breast): 0.695 µM
- TGI (BT-549 breast): 27.8 µM
- GI50 (SK-MEL-5 melanoma): 1.41 µM
- TGI (SK-MEL-5 melanoma): 20.2 µM
- GI50 (CCRF-CEM leukemia): 16.1 µM
- TGI (CCRF-CEM leukemia): 42.7 µM
- GI50 (IGROV1 ovarian): 61.4 µM
- TGI (IGROV1 ovarian): > 100 µM
- TGI (SK-MEL-2 melanoma): 14.6 µM
- GI50 (KM12 colon): 28.2 µM
- TGI (KM12 colon): 63.8 µM
- GI50 (DU-145 prostate): > 73.5 µM
- TGI (DU-145 prostate): > 100 µM
- GI50 (CAKI-1 renal): 27.9 µM
- TGI (CAKI-1 renal): 54 µM
- GI50 (SR leukemia): 15.1 µM
- TGI (SR leukemia): 28.5 µM
- GI50 (SK-OV-3 ovarian): < 0.0207 µM
- TGI (SK-OV-3 ovarian): 4.32 µM
- GI50 (HCT-15 colon): 27.7 µM
- TGI (HCT-15 colon): > 83.3 µM
- GI50 (RXF 393 renal): 0.175 µM
- TGI (RXF 393 renal): 6.79 µM
- GI50 (MOLT-4 leukemia): 18.5 µM
- TGI (MOLT-4 leukemia): 35.6 µM
- GI50 (COLO 205 colon): 20.5 µM
- TGI (COLO 205 colon): 47 µM
- GI50 (UO-31 renal): 39.6 µM
- TGI (UO-31 renal): > 100 µM
- GI50 (MDA-MB-231 breast): 0.103 µM
- TGI (MDA-MB-231 breast): 2.39 µM
- GI50 (SW-620 colon): 53.5 µM
- TGI (SW-620 colon): 97.4 µM
- GI50 (ACHN renal): 61.8 µM
- TGI (ACHN renal): > 100 µM
- GI50 (NCI-H322M lung): 33.5 µM
- TGI (NCI-H322M lung): > 73.1 µM
- GI50 (UACC-62 melanoma): 27.9 µM
- TGI (UACC-62 melanoma): > 69 µM
- GI50 (PC-3 prostate): 65.2 µM
- TGI (PC-3 prostate): > 100 µM
- GI50 (NCI/ADR-RES ovarian): > 70.9 µM
- TGI (NCI/ADR-RES ovarian): > 100 µM
- GI50 (OVCAR-3 ovarian): 42.5 µM
- TGI (OVCAR-3 ovarian): > 83.1 µM
- GI50 (T-47D breast): 22.4 µM
- TGI (T-47D breast): 49 µM
- GI50 (MDA-MB-435 melanoma): 47 µM
- TGI (MDA-MB-435 melanoma): > 100 µM
- GI50 (OVCAR-4 ovarian): 0.015 µM
- TGI (OVCAR-4 ovarian): 0.112 µM
- GI50 (LOX IMVI melanoma): 17.6 µM
- TGI (LOX IMVI melanoma): 31.5 µM

Reference: PubChem BioAssay (NCI)
